Reference: patent publication US12703679B2, “Sulfone compounds and pharmaceutical compositions thereof, and their therapeutic applications” (Cura Therapeutics, LLC, priority 2019, dated 2026)

Experiments:
Aß40 in CSF = assay: Reduction of Aß40 in CSF of Sprague Dawley rats after single dose intravenous and oral administration; type: in vivo
Description: This non-GLP study had two groups that received compound A1 by intravenous (IV) and oral (PO) administration with 3-6 male rats in each group. Rats received an IV dose of compound A1 at 1 mg/kg. Rats received a PO dose of compound A1 at 10 mg/kg. Plasma samples were collected pre-dose, 0.167 (10 min), 0.5, 1, 2, 4, 6, 8, 12, and 24 h post-dose. CSF samples were collected pre-dose, 0.5, 1, 2, 4, 8, 12, and 24 hours post-dose.

Aß40 = assay: Attenuating the amyloid β40 level in neurons differentiated from familial Alzheimer's disease patient iPSCs (ELISA); type: cell-based, human; details: 10 μM test compound, FIG. 3
Description: Induced pluripotent stem cells from a familial Alzheimer's disease patient carrying a duplication of the amyloid precursor protein gene were differentiated to neurons using standard protocols. Israel et al., Nature 2012, 482, 216-220. Neural precursor cells were plated on 24-well plates and differentiated to neurons over three weeks. There was an exponential increase in the levels of Aß secreted in these cells starting on Day 4 in culture. […]

## Cc1ccc(C(F)(F)F)cc1CS(=O)(=O)c1cccc(C(=O)O)c1 [Compound A1, 3-((2-methyl-5-(trifluoromethyl)benzyl)sulfonyl)benzoic acid]
Aß40 in CSF; single IV dose 1 mg/kg, rats, by 4 h post administration, FIG. 5
  reduction of Aß40 in CSF: 20-60%
Aß40 in CSF; single PO dose 10 mg/kg, male rats, FIG. 4
  time Aß40 levels in CSF remained lower than starting levels: up to 24 h
Aß40 in CSF; single PO dose 10 mg/kg, male rats, by 2 h post administration, FIG. 4
  decrease of Aß40 in CSF: up to 50%

## COc1cc(CS(=O)(=O)c2cccc(C(=O)O)c2)cc(OC)c1 [Compound A2, 3-((3,5-dimethoxybenzyl)sulfonyl)benzoic acid]
Aß40; daily treatment, by Day 6 of treatment, iPSC-derived neurons
  decrease of Aß40 relative to untreated cells (PBS): greater than 30%
Aß40; within 24 h, iPSC-derived neurons (APP gene duplication)
  reduction of Aß40 relative to untreated cells (PBS): 20%
